Results: the supplement of paper PMC10627819

How the values were obtained:
Test in all cases: Bliss interaction score (quartile over a dose matrix) (fitness difference); higher = more antagonism (negative = synergy)
B. subtilis 168 = system: B. subtilis 168
Outline: (§1)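 Each OD595 reading at entry into stationary phase was scaled to the robust mean of the untreated wells on its plate, with a ceiling of 1. These ratios define fitness, and single-drug fitness was inferred from combinations. The Bliss score compares observed fitness with the product-based expectation and is reported as quartiles across all replicate types, technical, biological and donor/recipient.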

S. pneumoniae D39V = system: S. pneumoniae D39V
Outline: as §1

S. aureus DSM 20231 = system: S. aureus DSM 20231
Outline: as §1

S. aureus Newman = system: S. aureus Newman
Outline: as §1
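Note: first quartile when negative (synergy) and third quartile when positive (antagonism).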

SMILES	Bliss interaction score (B. subtilis 168)	Bliss interaction score (S. pneumoniae D39V)	Bliss interaction score (S. aureus DSM 20231)	Bliss interaction score (S. aureus Newman)	Bliss interaction score (B. subtilis 168; main component drawn)	Bliss interaction score (S. pneumoniae D39V; main component drawn)	Bliss interaction score (S. aureus DSM 20231; main component drawn)	Bliss interaction score (S. aureus Newman; main component drawn)
CO[C@@]12[C@H](COC(N)=O)C3=C(C(=O)C(C)=C(N)C3=O)N1C[C@@H]1N[C@@H]12 [MitomycinC] + CN[C@@H]1[C@H](O)[C@H](NC)[C@H]2O[C@@]3(O)C(=O)C[C@@H](C)O[C@H]3O[C@@H]2[C@H]1O [Spectinomycin]	0.0749	-0.06	0.0772	-0.0974	–	–	–	–
CO[C@@]12[C@H](COC(N)=O)C3=C(C(=O)C(C)=C(N)C3=O)N1C[C@@H]1N[C@@H]12 [MitomycinC] + CN[C@@H]1[C@H](O[C@H]2[C@H](O[C@H]3[C@H](O)[C@@H](O)[C@H](N=C(N)N)[C@@H](O)[C@@H]3N=C(N)N)O[C@@H](C)[C@]2(O)C=O)O[C@@H](CO)[C@H](O)[C@H]1O [Streptomycin]	-0.21	-0.072	-0.117	-0.078	–	–	–	–
CO[C@@]12[C@H](COC(N)=O)C3=C(C(=O)C(C)=C(N)C3=O)N1C[C@@H]1N[C@@H]12 [MitomycinC] + CN[C@H](CC(C)C)C(=O)N[C@H]1C(=O)N[C@@H](CC(N)=O)C(=O)N[C@H]2C(=O)N[C@H]3C(=O)N[C@H](C(=O)N[C@H](C(=O)O)c4cc(O)cc(O)c4-c4cc3ccc4O)[C@H](O)c3ccc(c(Cl)c3)Oc3cc2cc(c3O[C@@H]2O[C@H](CO)[C@@H](O)[C@H](O)[C@H]2O[C@H]2C[C@](C)(N)[C@H](O)[C@H](C)O2)Oc2ccc(cc2Cl)[C@H]1O [Vancomycin]	0.0157	0.124	0.0497	-0.0526	–	–	–	–
CO[C@@]12[C@H](COC(N)=O)C3=C(C(=O)C(C)=C(N)C3=O)N1C[C@@H]1N[C@@H]12 [MitomycinC] + CN[C@H](CC(C)C)C(=O)N[C@H]1C(=O)N[C@@H](CC(N)=O)C(=O)N[C@H]2C(=O)N[C@H]3C(=O)N[C@H](C(=O)N[C@H](C(=O)O)c4cc(O)cc(O)c4-c4cc3ccc4O)[C@H](O[C@H]3C[C@](C)(N)[C@@H](O)[C@H](C)O3)c3ccc(c(Cl)c3)Oc3cc2cc(c3O[C@@H]2O[C@H](CO)[C@@H](O)[C@H](O)[C@H]2O[C@H]2C[C@](C)(NCc3ccc(-c4ccc(Cl)cc4)cc3)[C@@H](O)[C@H](C)O2)Oc2ccc(cc2Cl)[C@H]1O [Oritavancin]	0.017	-0.0514	-0.0806	0.0841	–	–	–	–
CO[C@@]12[C@H](COC(N)=O)C3=C(C(=O)C(C)=C(N)C3=O)N1C[C@@H]1N[C@@H]12 [MitomycinC] + CO[C@@H]1[C@@H](OC(N)=O)[C@@H](O)[C@H](Oc2ccc3c(O)c(NC(=O)c4ccc(O)c(CC=C(C)C)c4)c(=O)oc3c2C)OC1(C)C [Novobiocin]	-0.117	-0.11	-0.0588	-0.137	–	–	–	–
CO[C@@]12[C@H](COC(N)=O)C3=C(C(=O)C(C)=C(N)C3=O)N1C[C@@H]1N[C@@H]12 [MitomycinC] + CO[C@H]1/C=C/O[C@@]2(C)Oc3c(C)c(O)c4c(O)c(c(/C=N/N5CCN(C)CC5)c(O)c4c3C2=O)NC(=O)/C(C)=C\C=C\[C@H](C)[C@H](O)[C@@H](C)[C@@H](O)[C@@H](C)[C@H](OC(C)=O)[C@@H]1C [Rifampicin]	0.155	-0.117	-0.0914	-0.0175	–	–	–	–
CO[C@@]12[C@H](COC(N)=O)C3=C(C(=O)C(C)=C(N)C3=O)N1C[C@@H]1N[C@@H]12 [MitomycinC] + COc1c(N2C[C@@H]3CCCN[C@@H]3C2)c(F)cc2c(=O)c(C(=O)O)cn(C3CC3)c12 [Moxifloxacin]	0.0263	0.056	0.07	-0.099	–	–	–	–
CO[C@@]12[C@H](COC(N)=O)C3=C(C(=O)C(C)=C(N)C3=O)N1C[C@@H]1N[C@@H]12 [MitomycinC] + COc1cc(Cc2cnc(N)nc2N)cc(OC)c1OC [Trimethoprim]	-0.108	-0.141	-0.102	-0.127	–	–	–	–
CO[C@@]12[C@H](COC(N)=O)C3=C(C(=O)C(C)=C(N)C3=O)N1C[C@@H]1N[C@@H]12 [MitomycinC] + COc1ccc(C[C@H](N)C(=O)N[C@H]2[C@@H](O)[C@H](n3cnc4c(N(C)C)ncnc43)O[C@@H]2CO)cc1 [Puromycin]	-0.0693	0.0762	0.0528	0.0521	–	–	–	–
CO[C@@]12[C@H](COC(N)=O)C3=C(C(=O)C(C)=C(N)C3=O)N1C[C@@H]1N[C@@H]12 [MitomycinC] + C[n+]1ccc(-c2cc[n+](C)cc2)cc1 [Paraquat]	0.0434	-0.0446	-0.0406	0.04	–	–	–	–
CO[C@@]12[C@H](COC(N)=O)C3=C(C(=O)C(C)=C(N)C3=O)N1C[C@@H]1N[C@@H]12 [MitomycinC] + Cc1cc(NS(=O)(=O)c2ccc(N)cc2)no1 [Sulfamethoxazol]	0.082	-0.0583	0.036	0.0863	–	–	–	–
CO[C@@]12[C@H](COC(N)=O)C3=C(C(=O)C(C)=C(N)C3=O)N1C[C@@H]1N[C@@H]12 [MitomycinC] + Cc1onc(-c2ccccc2)c1C(=O)N[C@@H]1C(=O)N2[C@@H]1SC(C)(C)[C@@H]2C(=O)O [Oxacillin]	-0.0799	0.0896	0.0499	0.046	–	–	–	–
CO[C@@]12[C@H](COC(N)=O)C3=C(C(=O)C(C)=C(N)C3=O)N1C[C@@H]1N[C@@H]12 [MitomycinC] + Cn1nnc(-c2ccc(-c3ccc(N4C[C@H](CO)OC4=O)cc3F)cn2)n1 [Tedizolid]	0.0705	-0.124	-0.0817	-0.0886	–	–	–	–
CO[C@@]12[C@H](COC(N)=O)C3=C(C(=O)C(C)=C(N)C3=O)N1C[C@@H]1N[C@@H]12 [MitomycinC] + O=C1CN(/N=C/c2ccc([N+](=O)[O-])o2)C(=O)N1 [Nitrofurantoin]	-0.0788	-0.145	-0.0298	-0.0345	–	–	–	–
CO[C@@]12[C@H](COC(N)=O)C3=C(C(=O)C(C)=C(N)C3=O)N1C[C@@H]1N[C@@H]12 [MitomycinC] + Oc1cc(Cl)ccc1Oc1ccc(Cl)cc1Cl [Triclosan]	-0.0544	0.0578	-0.025	-0.0343	–	–	–	–
CO[C@@H]1[C@@H](OC(N)=O)[C@@H](O)[C@H](Oc2ccc3c(O)c(NC(=O)c4ccc(O)c(CC=C(C)C)c4)c(=O)oc3c2C)OC1(C)C [Novobiocin] + C/C(=C\C(=O)OCCCCCCCCC(=O)O)C[C@@H]1OC[C@H](C[C@@H]2O[C@H]2[C@@H](C)[C@H](C)O)[C@@H](O)[C@H]1O [Pseudomonic acid]	-0.0516	0.241	-0.0173	-0.0166	–	–	–	–
CO[C@@H]1[C@@H](OC(N)=O)[C@@H](O)[C@H](Oc2ccc3c(O)c(NC(=O)c4ccc(O)c(CC=C(C)C)c4)c(=O)oc3c2C)OC1(C)C [Novobiocin] + CC1(C)S[C@@H]2[C@H](NC(=O)Cc3ccccc3)C(=O)N2[C@H]1C(=O)O [PenicillinG]	0.0716	-0.0976	-0.0356	-0.0408	–	–	–	–
CO[C@@H]1[C@@H](OC(N)=O)[C@@H](O)[C@H](Oc2ccc3c(O)c(NC(=O)c4ccc(O)c(CC=C(C)C)c4)c(=O)oc3c2C)OC1(C)C [Novobiocin] + CCCCCCCCCC(=O)N[C@@H]1[C@H]([C@@H]([C@H](O[C@H]1OC2=C3C=C4C=C2OC5=C(C=C(C=C5)[C@H]([C@H]6C(=O)N[C@@H](C7=C(C(=CC(=C7)O)OC8[C@H]([C@H]([C@@H]([C@H](O8)CO)O)O)O)C9=C(C=CC(=C9)[C@H](C(=O)N6)NC(=O)[C@@H]4NC(=O)[C@@H]1C2=CC(=CC(=C2)OC2=C(C=CC(=C2)[C@H](C(=O)N[C@H](CC2=CC(=C(O3)C=C2)Cl)C(=O)N1)N)O)O)O)C(=O)O)O[C@H]1[C@@H]([C@H]([C@@H]([C@H](O1)CO)O)O)NC(=O)C)Cl)CO)O)O [Teicoplanin]	–	–	–	–	0.127	0.0574	-0.102	-0.234
CO[C@@H]1[C@@H](OC(N)=O)[C@@H](O)[C@H](Oc2ccc3c(O)c(NC(=O)c4ccc(O)c(CC=C(C)C)c4)c(=O)oc3c2C)OC1(C)C [Novobiocin] + CC[C@H]1OC(=O)[C@H](C)C(=O)[C@H](C)[C@@H](O[C@@H]2O[C@H](C)C[C@H](N(C)C)[C@H]2O)[C@](C)(OC)C[C@@H](C)C(=O)[C@H](C)[C@H]2N(CCCCn3cnc(-c4cccnc4)c3)C(=O)O[C@]12C [Telithromycin]	0.0833	0.0464	0.0515	-0.0192	–	–	–	–
CO[C@@H]1[C@@H](OC(N)=O)[C@@H](O)[C@H](Oc2ccc3c(O)c(NC(=O)c4ccc(O)c(CC=C(C)C)c4)c(=O)oc3c2C)OC1(C)C [Novobiocin] + CN[C@H](CC(C)C)C(=O)N[C@H]1C(=O)N[C@@H](CC(N)=O)C(=O)N[C@H]2C(=O)N[C@H]3C(=O)N[C@H](C(=O)N[C@H](C(=O)O)c4cc(O)cc(O)c4-c4cc3ccc4O)[C@H](O)c3ccc(c(Cl)c3)Oc3cc2cc(c3O[C@@H]2O[C@H](CO)[C@@H](O)[C@H](O)[C@H]2O[C@H]2C[C@](C)(N)[C@H](O)[C@H](C)O2)Oc2ccc(cc2Cl)[C@H]1O [Vancomycin]	0.071	-0.133	-0.0386	-0.0447	–	–	–	–
CO[C@@H]1[C@@H](OC(N)=O)[C@@H](O)[C@H](Oc2ccc3c(O)c(NC(=O)c4ccc(O)c(CC=C(C)C)c4)c(=O)oc3c2C)OC1(C)C [Novobiocin] + CN[C@H](CC(C)C)C(=O)N[C@H]1C(=O)N[C@@H](CC(N)=O)C(=O)N[C@H]2C(=O)N[C@H]3C(=O)N[C@H](C(=O)N[C@H](C(=O)O)c4cc(O)cc(O)c4-c4cc3ccc4O)[C@H](O[C@H]3C[C@](C)(N)[C@@H](O)[C@H](C)O3)c3ccc(c(Cl)c3)Oc3cc2cc(c3O[C@@H]2O[C@H](CO)[C@@H](O)[C@H](O)[C@H]2O[C@H]2C[C@](C)(NCc3ccc(-c4ccc(Cl)cc4)cc3)[C@@H](O)[C@H](C)O2)Oc2ccc(cc2Cl)[C@H]1O [Oritavancin]	-0.0421	0.0403	-0.0612	-0.0768	–	–	–	–
CO[C@@H]1[C@@H](OC(N)=O)[C@@H](O)[C@H](Oc2ccc3c(O)c(NC(=O)c4ccc(O)c(CC=C(C)C)c4)c(=O)oc3c2C)OC1(C)C [Novobiocin] + CO[C@H]1/C=C/O[C@@]2(C)Oc3c(C)c(O)c4c(O)c(c(/C=N/N5CCN(C)CC5)c(O)c4c3C2=O)NC(=O)/C(C)=C\C=C\[C@H](C)[C@H](O)[C@@H](C)[C@@H](O)[C@@H](C)[C@H](OC(C)=O)[C@@H]1C [Rifampicin]	0.0681	0.159	0.0573	0.0819	–	–	–	–
CO[C@@H]1[C@@H](OC(N)=O)[C@@H](O)[C@H](Oc2ccc3c(O)c(NC(=O)c4ccc(O)c(CC=C(C)C)c4)c(=O)oc3c2C)OC1(C)C [Novobiocin] + Cn1nnc(-c2ccc(-c3ccc(N4C[C@H](CO)OC4=O)cc3F)cn2)n1 [Tedizolid]	0.0533	-0.131	-0.0789	-0.0571	–	–	–	–
CO[C@@H]1[C@@H](OC(N)=O)[C@@H](O)[C@H](Oc2ccc3c(O)c(NC(=O)c4ccc(O)c(CC=C(C)C)c4)c(=O)oc3c2C)OC1(C)C [Novobiocin] + Oc1cc(Cl)ccc1Oc1ccc(Cl)cc1Cl [Triclosan]	0.0532	0.177	0.0686	-0.0304	–	–	–	–
CN[C@H](CC(C)C)C(=O)N[C@H]1C(=O)N[C@@H](CC(N)=O)C(=O)N[C@H]2C(=O)N[C@H]3C(=O)N[C@H](C(=O)N[C@H](C(=O)O)c4cc(O)cc(O)c4-c4cc3ccc4O)[C@H](O[C@H]3C[C@](C)(N)[C@@H](O)[C@H](C)O3)c3ccc(c(Cl)c3)Oc3cc2cc(c3O[C@@H]2O[C@H](CO)[C@@H](O)[C@H](O)[C@H]2O[C@H]2C[C@](C)(NCc3ccc(-c4ccc(Cl)cc4)cc3)[C@@H](O)[C@H](C)O2)Oc2ccc(cc2Cl)[C@H]1O [Oritavancin] + C/C(=C\C(=O)OCCCCCCCCC(=O)O)C[C@@H]1OC[C@H](C[C@@H]2O[C@H]2[C@@H](C)[C@H](C)O)[C@@H](O)[C@H]1O [Pseudomonic acid]	0.0341	0.0558	0.0201	0.0197	–	–	–	–
